PubChem BioAssay AID248 (DTP/NCI, 2004)
Toxic doses and inconclusive results are not listed. Cut-off read from the data, not from the text of the source: active = T/C of 150% or more; inactive = T/C below 125%.

Tested on: L1210 leukemia ip in BDF1 mice, survival T/C
Experiment: NCI In Vivo Anticancer Drug Screen. Data for tumor model L1210 Leukemia (intraperitoneal) in B6D2F1 (BDF1) mice
Details: endpoint: mean survival time, higher = longer survival
Method in brief: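 Value reflects the ratio of survival in compound-treated mice to survival in vehicle-treated controls, with both groups carrying the same transplanted tumor.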

[1] = dose: 50.0 mg/kg/injection, schedule: Q01DX009 (ip), vehicle: saline
[2] = dose: 100.0 mg/kg/injection, schedule: Q01DX001 (ip), vehicle: saline with Tween-80
[3] = dose: 200.0 mg/kg/injection, schedule: Q01DX001 (ip), vehicle: saline with Tween-80
[4] = dose: 100.0 mg/kg/injection, schedule: Q01DX001 (ip), vehicle: carboxymethylcellulose (CMC)
[5] = dose: 200.0 mg/kg/injection, schedule: Q01DX001 (ip), vehicle: carboxymethylcellulose (CMC)
[6] = dose: 400.0 mg/kg/injection, schedule: Q01DX001 (ip), vehicle: carboxymethylcellulose (CMC)
[7] = dose: 100.0 mg/kg/injection, schedule: Q04DX003 (ip), vehicle: saline with Tween-80
[8] = dose: 200.0 mg/kg/injection, schedule: Q04DX003 (ip), vehicle: saline with Tween-80
[9] = dose: 400.0 mg/kg/injection, schedule: Q04DX003 (ip), vehicle: saline with Tween-80
[10] = dose: 50.0 mg/kg/injection, schedule: Q04DX002 (ip), vehicle: Klucel (hydroxypropylcellulose) (HPC)
[11] = dose: 100.0 mg/kg/injection, schedule: Q04DX002 (ip), vehicle: Klucel (hydroxypropylcellulose) (HPC)
[12] = dose: 200.0 mg/kg/injection, schedule: Q04DX002 (ip), vehicle: Klucel (hydroxypropylcellulose) (HPC)
[13] = dose: 100.0 mg/kg/injection, schedule: Q04DX003 (ip), vehicle: Klucel (hydroxypropylcellulose) (HPC)
[14] = dose: 200.0 mg/kg/injection, schedule: Q04DX003 (ip), vehicle: Klucel (hydroxypropylcellulose) (HPC)
[15] = dose: 400.0 mg/kg/injection, schedule: Q04DX002 (ip), vehicle: Klucel (hydroxypropylcellulose) (HPC)
[16] = dose: 100.0 mg/kg/injection, schedule: Q04DX003 (ip), vehicle: other
[17] = dose: 200.0 mg/kg/injection, schedule: Q04DX003 (ip), vehicle: other
[18] = dose: 400.0 mg/kg/injection, schedule: Q04DX003 (ip), vehicle: other

Measured: T/C

CN(C)CCCCc1cn(-c2ccccc2)c2ccccc12
inactive: dose: 12.5 mg/kg/injection, schedule: Q01DX009 (ip), vehicle: saline 100 % of control | dose: 25.0 mg/kg/injection, schedule: Q01DX009 (ip), vehicle: saline 93 % of control | dose: 25.0 mg/kg/injection, schedule: Q04DX003 (ip), vehicle: saline 102 % of control | dose: 30.0 mg/kg/injection, schedule: Q01DX015 (ip), vehicle: saline 86 % of control | [1] 107 % of control | dose: 50.0 mg/kg/injection, schedule: Q04DX003 (ip), vehicle: saline 103 % of control

CCC(C(=O)Cl)c1ccc(-c2ccccc2)cc1 (centres undefined)
inactive: dose: 50.0 mg/kg/injection, schedule: Q01DX001 (ip), vehicle: saline with Tween-80 96 % of control | [2] 96 % of control | [3] 96 % of control

Cc1[nH]c2ccccc2c1C1CCC(=O)C1 (centres undefined)
inactive: [4] 100 % of control | [5] 89 % of control | [6] 93 % of control

COC1CCC2CC3(CCC2(C)C1O)OCCO3 (centres undefined)
inactive: [4] 100 % of control | [5] 105 % of control | [6] 97 % of control

Oc1ccccc1C=Nc1ccc(I)cc1.Oc1ccccc1C=Nc1ccc(I)cc1.[Co]
inactive: [7] 96 % of control | [8] 108 % of control | [9] 102 % of control

CC(=O)OCC(=O)[C@@]1(O)CC[C@H]2[C@@H]3CCC4=CC(=O)C=C[C@]4(C)[C@H]3C(=O)C[C@@]21C
inactive: dose: 12.5 mg/kg/injection, schedule: Q01DX009 (ip), vehicle: Klucel (hydroxypropylcellulose) (HPC) 93 % of control | dose: 25.0 mg/kg/injection, schedule: Q01DX009 (ip), vehicle: Klucel (hydroxypropylcellulose) (HPC) 98 % of control | dose: 50.0 mg/kg/injection, schedule: Q01DX009 (ip), vehicle: Klucel (hydroxypropylcellulose) (HPC) 103 % of control | dose: 75.0 mg/kg/injection, schedule: Q01DX009 (ip), vehicle: Klucel (hydroxypropylcellulose) (HPC) 100 % of control | dose: 115.0 mg/kg/injection, schedule: Q01DX009 (ip), vehicle: Klucel (hydroxypropylcellulose) (HPC) 98 % of control | dose: 170.0 mg/kg/injection, schedule: Q01DX009 (ip), vehicle: Klucel (hydroxypropylcellulose) (HPC) 103 % of control | dose: 255.0 mg/kg/injection, schedule: Q01DX009 (ip), vehicle: Klucel (hydroxypropylcellulose) (HPC) 86 % of control

CN(C)C1(Cc2ccccc2)c2ccccc2-c2ccccc21
inactive: [10] 103 % of control | [11] 106 % of control | [12] 95 % of control

Cc1ccc(Nc2nc(N)nc(N)c2N=O)cc1Cl
inactive: dose: 100.0 mg/kg/injection, schedule: Q01DX Z (ip), vehicle: methylcellulose (MC) 104 % of control | dose: 200.0 mg/kg/injection, schedule: Q01DX Z (ip), vehicle: methylcellulose (MC) 89 % of control

COC(=O)C1CC2(C(=O)OC)CC(C(=O)OC)(CC(C(=O)OC)C2=O)C1=O (centres undefined)
inactive: [10] 93 % of control | [11] 102 % of control | [13] 95 % of control | [12] 108 % of control | [14] 89 % of control | dose: 400.0 mg/kg/injection, schedule: Q04DX003 (ip), vehicle: Klucel (hydroxypropylcellulose) (HPC) 92 % of control

O=C(Nc1cccc2ccccc12)OCc1ccccc1
inactive: [11] 108 % of control | [12] 89 % of control | [15] 93 % of control

O=C1CC(=O)NC(=O)N1
inactive: [7] 91 % of control | [8] 93 % of control | [9] 91 % of control

COc1cccc(C(=O)O)c1O
inactive: dose: 75.0 mg/kg/injection, schedule: Q01DX001 (ip), vehicle: acetone 101 % of control | dose: 150.0 mg/kg/injection, schedule: Q01DX001 (ip), vehicle: acetone 98 % of control

CCOC(=O)CC/C(C)=N\N(C)C
inactive: dose: 100.0 mg/kg/injection, schedule: Q04DX003 (ip), vehicle: saline 93 % of control | dose: 200.0 mg/kg/injection, schedule: Q04DX003 (ip), vehicle: saline 97 % of control | dose: 400.0 mg/kg/injection, schedule: Q04DX003 (ip), vehicle: saline 93 % of control

CC1(O)CCCCC1c1ccccc1 (centres undefined)
inactive: [16] 104 % of control | [17] 95 % of control | [18] 93 % of control

O=C(Cc1ccccc1)NC1=C(NCc2ccccc2)C(=O)c2ccccc2C1=O
inactive: [7] 105 % of control | [8] 98 % of control | [9] 96 % of control

CC(=O)ON1CCC=NC1
inactive: dose: 50.0 mg/kg/injection, schedule: Q04DX002 (ip), vehicle: saline 102 % of control | dose: 100.0 mg/kg/injection, schedule: Q04DX002 (ip), vehicle: saline 91 % of control | dose: 200.0 mg/kg/injection, schedule: Q04DX002 (ip), vehicle: saline 91 % of control | dose: 400.0 mg/kg/injection, schedule: Q04DX002 (ip), vehicle: saline 109 % of control

O=S(=O)(O)c1ccc2c(N=Nc3ccc(S(=O)(=O)N(CCCl)CCCl)cc3)c(O)c(S(=O)(=O)O)cc2c1
inactive: dose: 50.0 mg/kg/injection, schedule: Q04DX003 (ip), vehicle: Klucel (hydroxypropylcellulose) (HPC) 106 % of control | [13] 90 % of control | [14] 93 % of control

O=C(O)C12C3CCC(O3)C1(C(=O)O)C1CCC2O1 (centres undefined)
inactive: [11] 104 % of control | [12] 104 % of control | [15] 104 % of control

NCCc1cc(O)c(O)c(O)c1
inactive: [1] 104 % of control | dose: 100.0 mg/kg/injection, schedule: Q01DX009 (ip), vehicle: saline 113 % of control

NC(=O)Nc1ccc(SCC(=O)O)cc1
inactive: [11] 106 % of control | [12] 95 % of control | [15] 113 % of control

Cc1ccc(S(=O)(=O)Oc2c(Cl)c(Cl)c(Cl)c(Cl)c2Cl)cc1
inactive: dose: 100.0 mg/kg/injection, schedule: Q01DX001 (ip), vehicle: other 94 % of control | dose: 100.0 mg/kg/injection, schedule: Q01DX009 (ip), vehicle: other 92 % of control | [16] 92 % of control | dose: 200.0 mg/kg/injection, schedule: Q01DX001 (ip), vehicle: other 102 % of control | dose: 200.0 mg/kg/injection, schedule: Q01DX009 (ip), vehicle: other 86 % of control | [17] 93 % of control | dose: 400.0 mg/kg/injection, schedule: Q01DX001 (ip), vehicle: other 88 % of control | [18] 90 % of control

COc1cc2c[n+](C)c3c4ccccc4ccc3c2cc1OC
inactive: [2] 88 % of control | [3] 88 % of control

COc1ccc(CN2CCCN(Cc3ccc(OC)cc3)C2c2c(O)ccc3ccccc23)cc1
inactive: dose: 5.0 mg/kg/injection, schedule: Q01DX001 (ip), vehicle: acetone 100 % of control | dose: 10.0 mg/kg/injection, schedule: Q01DX001 (ip), vehicle: acetone 95 % of control | dose: 20.0 mg/kg/injection, schedule: Q01DX001 (ip), vehicle: acetone 92 % of control | dose: 40.0 mg/kg/injection, schedule: Q01DX001 (ip), vehicle: acetone 88 % of control

CS(=O)(=O)Oc1c(Cl)cc(S(=O)(=O)F)cc1Cl
inactive: dose: 100.0 mg/kg/injection, schedule: Q01DX009 (ip), vehicle: Klucel (hydroxypropylcellulose) (HPC) 104 % of control | dose: 200.0 mg/kg/injection, schedule: Q01DX009 (ip), vehicle: Klucel (hydroxypropylcellulose) (HPC) 102 % of control
